Test results: patent US20200291444A1, “Macrocyclisation Tags” (Oxford University Innovation LTD, priority 2017, published 2020)
Where “and” joins values, the source holds several entries; their conditions need not be identical. Identical values can stand only once. Entries after “also recorded” stand apart in the source; their conditions may differ. Like-named read-outs stand apart in the source and are kept apart here. No end group written: not given here.

Key:
PCY1:S562A = assay: ITC equilibrium binding to PCY1:S562A; set-up: species or system Saponaria vaccaria; settings: for Kd: ITC, 25° C.
Procedure: All PCY1 samples were buffer-exchanged or solubilized into buffer F and further diluted in the same batch of buffer F, in order to minimize buffer mismatches. ITC binding experiments were performed using a cell solution containing PCY1:S562A and a titrant solution with each peptide used. […] The measurements were performed at a stir speed of 750 rpm at 25° C. using a reference power of 10 μcal/s, except for A1-NH2 (5 μcal/s). A buffer titration control in which peptide was titrated into buffer was performed for each experiment. Data processing, fitting to a non-linear one-site binding model, and data plotting was performed using MicroCal PEAQ ITC analysis software (Malvern). […] The measurement was performed in buffer at 30° C., at 750 rpm using a reference power of 5 μcal/s.

PCY1 [1] = assay: PCY1 macrocyclisation of truncated presegetalin F1 substrates with catalytic peptide; assay type: biochemical, Saponaria vaccaria; settings: for effect of catalytic peptide on rate of PreF1coreT macrocyclisation: substrate PreF1coreT (FSASYSSKPIQT), 500 μM catalytic peptide
Procedure: Initial rate measurements at different substrate concentrations were performed in order to derive steady state kinetics. All reactions were performed with 0.25 μM PCY1 and 25, 50, 100, 200, 400 or 800 μM substrate ([…] or […]). Reactions containing catalytic peptide RNASAPV or DNASAPV were supplemented with 500 μM of each peptide, respectively. Reactions were performed in 20 mM TRIS pH 8.5, 100 mM NaCl, 5 mM DTT at 30° C. Time points were taken at 5, 15, 30, 45 and 60 min. Samples (50 μL) at each time point were quenched with 20 μL of 6% (v/v) TFA and then spun down for 30 min at 3,080×g. Samples were analysed via LC/MS (ZORBAX SBC18, 5 μm, 9.4 mm×50 mm (Agilent) column connected to an Agilent LC-MS instrument (G6130B Single Quad, Agilent Technologies)) using 0.1% (v/v) formic acid and a gradient of acetonitrile (5%-95%). Extracted ion count peaks for corresponding product (A[[…]]) masses ([M]: 954.44, [M]+H^+: 955.44 and [M]+Na^+: 977.44) were integrated and converted in corresponding product concentration using an ion count v. [product] calibration curve. Product concentration time courses were analysed with linear regression and slopes were plotted as a function of substrate concentrations (Michaelis Menten plot), deriving steady state kinetic parameters shown in FIGS. 7 to 9.

GmPOPB_S577A = target: T1, GmPOPB_S577A (Galerina marginata, UniProt H2E7Q8, S577A); assay: ITC binding to inactive mutant GmPOPB_S577A; settings: for difference in binding affinity (fold): 13mer versus 35mer, 12 versus 17 amino acid recognition sequence; for binding (in words): concentrations up to 1 mM
T1 construct: His-tag (TEV-cleavable) (cleaved yes); made in house; host or cells: E. coli BL21(DE3)
T1 sequence (H2E7Q8 1-730 S577A): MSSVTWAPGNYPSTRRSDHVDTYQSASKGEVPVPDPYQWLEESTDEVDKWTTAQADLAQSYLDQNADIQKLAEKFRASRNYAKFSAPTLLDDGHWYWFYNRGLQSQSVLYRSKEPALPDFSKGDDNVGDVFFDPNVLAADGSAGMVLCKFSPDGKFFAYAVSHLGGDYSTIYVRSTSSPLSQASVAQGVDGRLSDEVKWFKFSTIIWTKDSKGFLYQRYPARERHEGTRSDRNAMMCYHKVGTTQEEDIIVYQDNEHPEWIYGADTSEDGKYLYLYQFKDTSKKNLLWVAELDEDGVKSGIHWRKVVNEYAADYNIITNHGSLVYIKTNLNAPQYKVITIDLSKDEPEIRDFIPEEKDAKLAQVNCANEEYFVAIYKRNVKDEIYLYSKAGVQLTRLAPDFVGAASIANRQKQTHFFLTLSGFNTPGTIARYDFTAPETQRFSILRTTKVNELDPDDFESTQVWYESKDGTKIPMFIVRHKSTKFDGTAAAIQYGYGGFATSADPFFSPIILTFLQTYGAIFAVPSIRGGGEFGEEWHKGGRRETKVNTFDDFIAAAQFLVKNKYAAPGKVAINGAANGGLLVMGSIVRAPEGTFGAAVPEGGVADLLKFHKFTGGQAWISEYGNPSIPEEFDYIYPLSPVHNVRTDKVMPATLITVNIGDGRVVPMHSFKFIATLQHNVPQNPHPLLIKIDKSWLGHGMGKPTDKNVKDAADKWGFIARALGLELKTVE
Procedure: GmPOPB peptide ligand solutions were prepared in 20 mM Tris pH 8.0 containing 1 mM DTT, prior to buffer exchange by three cycles of dilution in 50 mM Tris pH 8.0 with 50 mM NaCl, 10 mM DTT followed by concentration using a Microsep Advance centrifugal device equipped with a 1 kDa cut off membrane (Pall Corporation). The same three cycles of dilution in 50 mM Tris pH 8.0 with 50 mM NaCl and 10 mM DTT followed by concentration were performed with the protein to be used in the titration using a Vivaspin protein concentrator spin column with a 30 kDa cut off (GE Healthcare). A final dilution to the concentration to be used for titration was performed using the buffer that passed through during the protein buffer exchange, both for the protein and peptide to be used to avoid any possible buffer mismatch. […] Titrations of peptide into protein solutions were conducted at 20° C. For all the titration experiments, a total of 19 injections of 2 μL were made at 120 s intervals. The heat released due to the first injection (0.4 μL) was excluded from data analyses. […] Equilibrium dissociation constants (Kd) as well as ΔH and ΔS values for binding of each peptide to protein were obtained by fitting the calorimetric data with a single-site model using the stoichiometry parameter n fixed at 1.0 using Malvern PEAQ-ITC data analysis software.
We performed all ITC binding experiments at least in duplicate, and calculations of average and standard error of the mean were performed with GraphPad Prism.

GmPOPB = target: T2, GmPOPB (Galerina marginata, UniProt H2E7Q8); assay: GmPOPB kinetic assays (LC-MS); assay type: biochemical; settings: room temperature
T2 construct: His-tag (TEV-cleavable) (cleaved yes); host or cells: E. coli BL21(DE3)
Procedure: Comparison between distinct GmPOPB substrates was performed in 50 mM Tris pH 8.0, 50 mM NaCl, 10 mM DTT with varying concentrations of substrates at room temperature. All reactions were performed in duplicates. Reactions were started by adding GmPOPB (50 nM for GmAMA1_C6S, 1 μM for the 13mer and 14mer, and 20 nM for other substrates) to the assay mixture containing buffer and peptide. Reactions were quenched at several time points by adding 50 μL reaction mixture to 20 μL 6% TFA. Reactants were separated from products for quantification by injecting 50 μL of each quenched time point mix onto a ZORBAX SB-C18, 5 μm, 9.4×50 mm (Agilent) column connected to an Agilent LC-MS (G6130B Single Quad, Agilent Technologies). Reactants were separated from products using a gradient from H2O containing 0.1% TFA or 0.1% formic acid and 5% acetonitrile to 50% acetonitrile, at 1.5 ml/min for 8 min. Peaks with ultra violet (UV) absorbance at 220 and 280 nm were integrated, the area of peaks corresponding to reactant and products was used to calculate the percentage of product formed after a correction for differences in the extinction coefficient of each peptide was applied (ε280-25mer=11,000M-1 cm-1, ε220-25mer=46,000M-1 cm-1, ε280-cyclic=5500M-1 cm-1, ε220-cyclic=34,000M-1 cm-1, and ε280-tail=5500M-1 cm-1). The sum of product+substrate was assumed equal to the total initial amount of substrate, product converted from % to concentration. This value was divided by concentration of enzyme present to yield v/Et (min-1). When enzyme mutants and peptides containing alanine in the core region were tested for activity, higher concentrations 5 μM enzyme and 100 μM substrate were incubated for 1 and 18 h at room temperature. For progress curves with the 35mer substrate, measurements were triplicate and quantification relied on ion counts from mass spectrometry. […] Authentic macrocyclic peptide was quantified by UV absorbance. Data showing products formed after 1 and 16 h with truncated peptides were performed twice. […] Kinetic data were fitted to a Michaelis-Menten equation using GraphPad Prism, and values reported are average and standard error of the mean.

PCY1 [2] = assay: LC/MS steady-state kinetics of macrocyclisation by PCY1; assay type: biochemical, Saponaria vaccaria; settings: for Km: read-out: Km (table head prints Kin)
Procedure: (§1) All kinetic measurements (activity tests, progress curves and initial-rate experiments) were performed as discontinuous assays analyzing samples via LC/MS or MALDI (10-mer activity test). Reactions were performed in 20 mM Tris pH 8.5, 100 mM NaCl, 5 mM DTT (for progress curves 0.2 mg mL-1 BSA was included).17 Reactions were performed at 30° C. and at various time points 50 μL samples were quenched with 20 μL of 6% (v/v) TFA. Samples (50 μL) were loaded onto a ZORBAX SBC18, 5 μm, 9.4 mm×50 mm (Agilent) column connected to an Agilent LC-MS instrument (G6130B Single Quad, Agilent Technologies). Reactants were separated from products using a gradient from A (H2O with 0.1% formic acid) to 80% B (acetonitrile), at a rate of 1.5 mL/min for 8.75 min. For data analysis, ion count peaks and UV absorbance peaks were integrated using Agilent ChemStation software. For data analysis involving quantitative mass spec integration, calibration curves with macrocyclic peptide product were performed in triplicate in order to linearly correlate ion counts to cyclic product concentration. Data fitting and plotting was performed with Prism 6.
(§2) PCY1 extracted from S. vaccaria seeds has been previously described to have a turnover number of ˜1 h^−1 for PresegA1.^17 The enzyme produced heterologously in E. coli was evaluated by LC/MS-based time course experiments macrocyclizing 200 μM of PresegA1, PresegB1 or PresegF1 with 3.6 μM PCY1. These substrates were chosen as they produce 6, 5 and 9 residue macrocycles, respectively, show variability in the length of the C-terminal tail sequence, and have a different C-terminal core residue (proline in PresegF1, alanine in the other two) (FIG. 1b). PresegB1 was completely macrocyclized in ˜30 min, PresegA1 in ˜50 min and PresegF1 in >3 h (FIG. 2a). We chose to investigate the slowest and fastest substrate by steady-state kinetics using an LC/MS assay and UV280 nm quantification. […] Under the ITC conditions, the measured kcat (0.14±0.01 s^−1) was a factor of three lower than the LC/MS derived values. […] Therefore, we resorted to an LC/MS assay followed by quantification using mass ion counts, relying on a calibration curve employing the macrocyclic peptide product as a standard (FIG. 2b).

PCY1 [3] = assay: LC/MS time course of macrocyclisation by PCY1; assay type: biochemical, Saponaria vaccaria; settings: 200 μM substrate, 3.6 μM PCY1
Procedure: as §1
as §2, with “These substrates were chosen as they produce 6, 5 and 9 residue macrocycles, respectively, show variability in the length of the C-terminal tail sequence, and have a different C-terminal core residue (proline in PresegF1, alanine in the other two) (FIG. 1b). PresegB1 was completely macrocyclized in ˜30 min, PresegA1 in ˜50 min and PresegF1 in >3 h (FIG. 2a).” left out

[4] = ITC, 20° C., S577A mutant, read-out: Kd

Sequence of PCY1:S562A (as listed by the source, stated change not applied): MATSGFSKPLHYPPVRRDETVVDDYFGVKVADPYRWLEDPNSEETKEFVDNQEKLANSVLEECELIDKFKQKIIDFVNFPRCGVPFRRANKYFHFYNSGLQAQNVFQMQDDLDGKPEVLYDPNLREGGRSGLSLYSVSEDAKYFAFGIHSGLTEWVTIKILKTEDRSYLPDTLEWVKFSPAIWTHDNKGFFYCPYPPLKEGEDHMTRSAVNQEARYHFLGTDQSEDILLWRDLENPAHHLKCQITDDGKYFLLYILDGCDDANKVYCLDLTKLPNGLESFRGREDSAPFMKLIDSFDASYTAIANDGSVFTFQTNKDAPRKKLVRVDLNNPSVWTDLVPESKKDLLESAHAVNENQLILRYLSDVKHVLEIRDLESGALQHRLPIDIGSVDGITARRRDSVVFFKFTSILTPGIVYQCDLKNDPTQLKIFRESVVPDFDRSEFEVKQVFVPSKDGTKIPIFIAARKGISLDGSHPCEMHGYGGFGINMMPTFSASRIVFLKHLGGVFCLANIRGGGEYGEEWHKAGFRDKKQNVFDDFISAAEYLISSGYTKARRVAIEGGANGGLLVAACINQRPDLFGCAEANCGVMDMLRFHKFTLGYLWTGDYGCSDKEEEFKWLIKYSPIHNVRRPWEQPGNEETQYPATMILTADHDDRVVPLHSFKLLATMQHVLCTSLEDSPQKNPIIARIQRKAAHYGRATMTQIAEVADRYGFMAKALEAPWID
Sequence of PCY1 (as listed by the source): as the sequence (as listed by the source, stated change not applied) above, with A562S counted along it

## PresegD1: native linear PCY1 substrate presegetalin D1 (GLSFAFPAKDAENASSPV)
PCY1:S562A
  Kd: ~0.2 µM

## RGNASAPV [catalytic peptide for PCY1]
PCY1 [1]
  effect of catalytic peptide on rate of PreF1coreT macrocyclisation: increase in the rate

## H-IWGIGCNPWTA [11mer]
GmPOPB_S577A; [4]
  Kd: 39 ± 18 µM

## RANASAPV [catalytic peptide for PCY1]
PCY1 [1]
  effect of catalytic peptide on rate of PreF1coreT macrocyclisation: increase in the rate

## H-IWGIGCNPWTAEHV [14mer]
GmPOPB_S577A; [4]
  Kd: 9.5 ± 1.1 µM
GmPOPB
  Km: 380 µM
  kcat: 0.00967 s⁻¹

## CC[C@H](C)[C@H](NC(=O)CNC(=O)[C@H](Cc1c[nH]c2ccccc12)NC(=O)[C@@H](NC(=O)[C@@H]1CCCN1C(=O)[C@H](CC(C)C)NC(=O)[C@H](CCCNC(=N)N)NC(=O)[C@@H](NC(=O)[C@H](C)NC(=O)[C@H](CC(N)=O)NC(=O)[C@@H](NC(=O)[C@H](CC(=O)O)NC(=O)[C@H](Cc1ccccc1)NC(=O)[C@@H](N)CCSC)[C@@H](C)O)[C@@H](C)O)[C@@H](C)CC)C(=O)NCC(=O)N[C@@H](CS)C(=O)N[C@@H](CC(N)=O)C(=O)N1CCC[C@H]1C(=O)N[C@@H](Cc1c[nH]c2ccccc12)C(=O)N[C@H](C(=O)N[C@@H](C)C(=O)N[C@@H](CCC(=O)O)C(=O)N[C@@H](Cc1c[nH]cn1)C(=O)N[C@H](C(=O)N[C@@H](CC(=O)O)C(=O)N[C@@H](CCC(N)=O)C(=O)N[C@H](C(=O)N[C@@H](CC(C)C)C(=O)N[C@@H](C)C(=O)N[C@@H](CO)C(=O)NCC(=O)N[C@@H](CC(N)=O)C(=O)N[C@@H](CC(=O)O)C(=O)N[C@H](C(=O)N[C@@H](CS)C(=O)O)[C@@H](C)CC)[C@@H](C)O)C(C)C)[C@@H](C)O [35mer, reference compound]
GmPOPB_S577A; [4]
  Kd: 0.12 ± 0.03 µM

## VDQTLASGNDIC [12mer-recogSeq]
GmPOPB_S577A
  Kd: 5 ± 1 µM
  difference in binding affinity (fold): 20 fold

## RASAPV
PCY1 [1]
  effect of catalytic peptide on rate of PreF1coreT macrocyclisation: increase in the rate

## H-IWGIGCNPWTAEH [13mer]
GmPOPB_S577A
  difference in binding affinity (fold): ~20 fold and 10 fold
GmPOPB_S577A; [4]
  Kd: 2.4 ± 0.1 µM
GmPOPB
  Km: 25 µM
  kcat: 0.00817 s⁻¹

## RGANASAPV [catalytic peptide for PCY1]
PCY1 [1]
  effect of catalytic peptide on rate of PreF1coreT macrocyclisation: increase in the rate

## H-IWGIGCNPWT [10mer]
GmPOPB_S577A; [4]
  Kd: 83 ± 17 µM

## H-IWGIGCNPWTAE [12mer]
GmPOPB_S577A; [4]
  Kd: 21 ± 5 µM

## PresegF1: native linear PCY1 substrate presegetalin F1; produces a 9 residue macrocycle (FSASYSSKPIQTQVSNGMDNASAPV; PresegF1)
PCY1 [2]; LC/MS (ion counts), 30° C.
  kcat (table head prints kout): 0.12 ± 0.01 s⁻¹
  Km: 2.4 ± 0.51 µM
PCY1 [2]; steady state kinetics, FIG. 7
  processing by PCY1 (in words): rapidly processed
PCY1:S562A
  Kd: ~0.2 µM
PCY1 [3]
  time until completely macrocyclized: > 3 h

## RAANSAPV [catalytic peptide for PCY1]
PCY1 [1]
  effect of catalytic peptide on rate of PreF1coreT macrocyclisation: increase in the rate

## FSASYSSKPIQT [PresegF1-truncated]
PCY1 [2]; LC/MS (ion counts), 30° C.
  Km: 227 µM
PCY1:S562A; poor peptide solubility at high concentrations
  Kd (in words): too high to be accurately measured

## RNASAPV [catalytic peptide for PCY1]
PCY1 [1]
  effect of catalytic peptide on rate of PreF1coreT macrocyclisation: increases the rate; also recorded: increase in the rate

## TLASGNDIC [9mer-recogSeq]
GmPOPB_S577A
  Kd: 121 ± 19 µM

## RGGNASAPV [catalytic peptide for PCY1]
PCY1 [1]
  effect of catalytic peptide on rate of PreF1coreT macrocyclisation: increase in the rate

## MFDTNATRLP [reference compound]
GmPOPB_S577A; ITC
  binding (in words): no detectable binding
GmPOPB_S577A; ITC, listed as 10-residue leader
  binding (in words): does not bind
GmPOPB_S577A; ITC, listed as leader
  binding (in words): does not bind

## DNASAPV [catalytic peptide for PCY1]
PCY1 [1]; substrate PreF1coreD (FSASYSSKPIQD), mismatched catalytic peptide
  effect of catalytic peptide on rate of PreF1coreD macrocyclisation: reduces the rate
